According to patent US20110059869A1, “Method for Increasing Enzymatic Reactivity” (RIKEN, priority 2008, published 2011):

System: restriction enzyme PstI
Assay: PstI cleavage of DNA fragments I, II, III in a uniform liquid phase system
Format: biochemical
Settings: 0.6 M trehalose present or not, three hours at 37° C.
Experimental: In the same manner as in 7 above, the three biotin-labeled DNA fractions I, II, and III (Seq. ID Nos. 4 to 6) were each cleaved at the restriction enzyme PstI site and the DNA fragments of various sizes that were released were detected. Two types of reaction solution (1× PstI buffer, 1× BSA, restriction enzyme 40 units) were prepared: a trehalose (+) system with a final D(+)-trehalose concentration of 0.6 M, and a trehalose (−) system to which no trehalose was added. Each of the reaction solutions was admixed and reacted for three hours at 37° C. Cleavage was conducted with restriction enzyme. The DNA fragments of various sizes that were released were reacted with proteinase K, treated with phenol chloroform, and precipitated from ethanol. The precipitate of DNA fragments obtained was dissolved in 1× TE (pH 7.5) and analyzed with Bioanalyzer DNA 1000 assay (Agilent Technologies) (FIGS. 15 and 16).

`OC[C@H]1O[C@H](O[C@H]2O[C@H](CO)[C@@H](O)[C@H](O)[C@H]2O)[C@H](O)[C@@H](O)[C@@H]1O` [trehalose, D(+)-trehalose] was tested, and the “quantity of the released DNA fragments recovered” value was “no change”.
